In patent US10752587B2, “Homobispiperidinyl derivatives as liver X receptor beta agonists, compositions and their use” (Merck Sharp & Dohme Corp., priority 2015, dated 2020):
Where two headings read alike, the source gives them in different places.

Assays:
[1] = molecular target: T1, glutathione-S-transferase (GST) tagged LXRbeta LBD (ligand binding domain) (Homo sapiens, UniProt P55055); test: LanthaScreen TR-FRET Liver X Receptor Coactivator Assay, co-activator recruitment to LXRbeta LBD; assay type: biochemical
T1 construct: purchased Invitrogen pv4658.pps
T1 sequence (P55055 222-460 limits assumed): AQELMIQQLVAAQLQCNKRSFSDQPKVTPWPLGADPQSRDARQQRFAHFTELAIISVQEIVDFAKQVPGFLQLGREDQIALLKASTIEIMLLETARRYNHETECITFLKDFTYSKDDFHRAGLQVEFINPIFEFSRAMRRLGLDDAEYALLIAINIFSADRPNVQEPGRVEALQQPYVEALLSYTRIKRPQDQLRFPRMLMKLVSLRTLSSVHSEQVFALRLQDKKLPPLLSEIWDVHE
Outline: (§1)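 GST-tagged LBD added to test compound, then fluorescein-labelled coactivator peptide plus terbium anti-GST antibody; incubated at room temperature, TR-FRET read. Potency given as inflection point and efficacy as Emax relative to reference dual agonist T0901317.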

[2] = molecular target: T2, glutathione-S-transferase (GST) tagged LXRalpha LBD (ligand binding domain) (Homo sapiens, UniProt Q13133); test: LanthaScreen TR-FRET Liver X Receptor Coactivator Assay, co-activator recruitment to LXRalpha LBD; assay type: biochemical
T2 construct: purchased Invitrogen pv4655
T2 sequence (Q13133 209-447 limits assumed): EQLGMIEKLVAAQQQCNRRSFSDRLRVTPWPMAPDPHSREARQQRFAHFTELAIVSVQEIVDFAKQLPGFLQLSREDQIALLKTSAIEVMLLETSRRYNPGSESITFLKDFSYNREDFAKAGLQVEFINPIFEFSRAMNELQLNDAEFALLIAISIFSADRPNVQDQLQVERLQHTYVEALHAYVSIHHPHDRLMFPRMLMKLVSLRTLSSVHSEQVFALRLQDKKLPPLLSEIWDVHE
Outline: as §1

[3] = efficacy at max dose, in relation to reference dual agonist T0901317, read-out: LXR beta Activity @ max dose (%)
[4] = potency (Inflection Point, IP), co-activator recruitment to LXRbeta LBD, in relation to T0901317, read-out: LXR beta IP
[5] = efficacy at max dose, in relation to reference dual agonist T0901317, read-out: LXR alpha Activity @ max dose (%)
[6] = potency (Inflection Point, IP), co-activator recruitment to LXRalpha LBD, in relation to T0901317
[7] = LXR beta IP (nM), potency (Inflection Point, IP), co-activator recruitment to LXRbeta LBD, in relation to T0901317
[8] = read-out: LXR beta Activity @ max dose (%)
[9] = potency (Inflection Point, IP), co-activator recruitment to LXRalpha LBD, in relation to T0901317, read-out: LXR alpha IP
[10] = co-activator recruitment to GST-LXRbeta LBD, TR-FRET, read-out: LXR beta IP (Inflection Point, potency)
[11] = efficacy in relation to reference dual agonist T0901317, read-out: LXR beta Activity @ max dose
[12] = co-activator recruitment to GST-LXRalpha LBD, TR-FRET
[13] = efficacy in relation to reference dual agonist T0901317, read-out: LXR alpha Activity @ max dose
[14] = co-activator recruitment to GST-LXRalpha LBD, TR-FRET, read-out: LXR alpha IP (Inflection Point, potency)

Structure (SMILES)	Emax [1, 3] [%]	EC50 [1, 4] [nM]	Emax [2, 5] [%]	LXR alpha IP (nM) [2, 6]	other results
CN(C)C(=O)c1ccc(N2CCC(OC3CCN(C(=O)N4CC(O)(C(F)(F)F)C4)CC3)CC2)cc1Cl [Example 8-1, 2-chloro-4-(4-((1-(3-hydroxy-3-(trifluoromethyl)azetidine-1-carbonyl)piperidin-4-yl)oxy)piperidin-1-yl)-N,N-dimethylbenzamide]	18	30000	2	NO IP	
CN(C)C(=O)c1ccc(N2CCC(SC3CCN(C(=O)[C@](O)(c4cccc(OC(F)(F)F)c4)C(F)(F)F)CC3)CC2)nc1Cl [Example 9-1, (R)-2-chloro-N,N-dimethyl-6-(4-(1-(3,3,3-trifluoro-2-hydroxy-2-(3-(trifluoromethoxy)phenyl)propanoyl)piperidin-4-ylthio)piperidin-1-yl)nicotinamide]					EC50 [1, 7]: 13 nM; Emax [1, 8]: 60%; EC50 [2, 9]: 546 nM; Emax ([2]; read-out: LXR alpha Activity @ max dose (%)): 21%
COc1cccc([C@@](O)(C(=O)N2CCC(SC3CCN(c4ccc(C(=O)N(C)C)c(Cl)n4)CC3)CC2)C(F)(F)F)c1 [Example 9-2, 2-chloro-N,N-dimethyl-6-[4-({1-[(2R)-3,3,3-trifluoro-2-hydroxy-2-(3-methoxyphenyl)-propanoyl]piperidin-4-yl}sulfanyl)-piperidin-1-yl]-pyridine-3-carboxamide]	70	14	7	NO IP	
CN(C)C(=O)c1ccc(N2CCC(SC3CCN(C(=O)[C@](O)(c4cc(Cl)cc(Cl)c4)C(F)(F)F)CC3)CC2)nc1Cl [Example 9-3, 2-chloro-6-[4-({1-[(2R)-2-(3,5-dichlorophenyl)-3,3,3-trifluoro-2-hydroxypropanoyl]-piperidin-4-yl}-sulfanyl)piperidin-1-yl]-N,N-dimethyl-pyridine-3-carboxamide]	63	14	10	NO IP	
COc1cccc([C@@](O)(C(=O)N2CCC(SC3CCN(c4ccc(C(=O)N(C)C)c(Cl)c4)CC3)CC2)C(F)(F)F)c1 [Example 10-1, (R)-2-chloro-N,N-dimethyl-4-(4-(1-(3,3,3-trifluoro-2-hydroxy-2-(3-methoxyphenyl)propanoyl)piperidin-4-ylthio)piperidin-1-yl)benzamide]			8	NO IP	EC50 [1, 7]: 22 nM; Emax [1, 8]: 56%
CNC(=O)c1ccc(N2CCC(SC3CCN(C(=O)[C@](O)(c4cccc(OC)c4)C(F)(F)F)CC3)CC2)nc1Cl [Example 11-1, (R)-2-chloro-N-methyl-6-(4-(1-(3,3,3-trifluoro-2-hydroxy-2-(3-methoxyphenyl)propanoyl)piperidin-4-ylthio)piperidin-1-yl)nicotinamide]			17	NO IP	EC50 [1, 7]: 17 nM; Emax [1, 8]: 93%
CCOc1cccc([C@@](O)(C(=O)N2CCC(SC3CCN(c4ccc(C(=O)NC)c(Cl)n4)CC3)CC2)C(F)(F)F)c1 [Example 11-2, 2-chloro-6-[4-({1-[(2R)-2-(3-ethoxyphenyl)-3,3,3-trifluoro-2-hydroxypropanoyl]-piperidin-4-yl}-sulfanyl)piperidin-1-yl]-N-methyl-pyridine-3-carboxamide]	95	22	10	NO IP	
NC(=O)c1ccc(N2CCC(CC3CCN(C(=O)[C@](O)(c4cc(Cl)cc(Cl)c4)C(F)(F)F)CC3)CC2)cc1Cl [Example 12-1, 2-chloro-4-[4-({1-[(2R)-2-(3,5-dichlorophenyl)-3,3,3-trifluoro-2-hydroxypropanoyl]piperidin-4-yl}methyl)piperidin-1-yl]benzamide]	37	3	9	NO IP	
NC(=O)c1ccc(N2CCC(CC3CCN(C(=O)[C@](O)(c4ccccc4)C(F)(F)F)CC3)CC2)cc1Cl [Example 12-2, 2-chloro-4-[4-({1-[(2R)-3,3,3-trifluoro-2-hydroxy-2-phenyl-propanoyl]piperidin-4-yl}methyl)piperidin-1-yl]benzamide]	74	9	52		EC50 [2, 9]: 58 nM
COc1cc(F)cc([C@@](O)(C(=O)N2CCC(CC3CCN(c4ccc(C(N)=O)c(Cl)c4)CC3)CC2)C(F)(F)F)c1 [Example 12-3, 2-chloro-4-[4-({1-[(2R)-3,3,3-trifluoro-2-(3-fluoro-5-methoxy-phenyl)-2-hydroxy-propanoyl]piperidin-4-yl}methyl)-piperidin-1-yl]-benzamide]	79	5	20		EC50 [2, 9]: 49 nM
COc1cccc([C@@](O)(C(=O)N2CCC(CC3CCN(c4ccc(C(N)=O)c(Cl)c4)CC3)CC2)C(F)(F)F)c1 [Example 12-4, 2-chloro-4-[4-({1-[(2R)-3,3,3-trifluoro-2-hydroxy-2-(3-methoxyphenyl)-propanoyl]piperidin-4-yl}methyl)piperidin-1-yl]benzamide]	55	5	13	NO IP	
NC(=O)c1ccc(N2CCC(CC3CCN(C(=O)[C@](O)(c4cccc(Cl)c4)C(F)(F)F)CC3)CC2)cc1Cl [Example 12-5, 2-chloro-4-[4-({1-[(2R)-2-(3-chlorophenyl)-3,3,3-trifluoro-2-hydroxypropanoyl]-piperidin-4-yl}-methyl)piperidin-1-yl]benzamide]	76	4	38		EC50 [2, 9]: 32 nM
CCc1cccc([C@@](O)(C(=O)N2CCC(CC3CCN(c4ccc(C(N)=O)c(Cl)c4)CC3)CC2)C(F)(F)F)c1 [Example 12-6, 2-chloro-4-[4-({1-[(2R)-2-(3-ethylphenyl)-3,3,3-trifluoro-2-hydroxy-propanoyl]piperidin-4-yl}methyl)piperidin-1-yl]benzamide]	40	7	23		EC50 [2, 9]: 30 nM
CC(C)Oc1cccc([C@@](O)(C(=O)N2CCC(CC3CCN(c4ccc(C(N)=O)c(Cl)c4)CC3)CC2)C(F)(F)F)c1 [Example 12-7, 2-chloro-4-{4-[(1-{(2R)-3,3,3-trifluoro-2-hydroxy-2-[3-(1-methylethoxy)phenyl)-propanoyl}piperidin-4-yl)methyl]piperidin-1-yl}benzamide]					EC50 [1, 10]: 6 nM; Emax [1, 11]: 33%; LXR alpha IP (Inflection Point, potency) [2, 12]: NO IP; Emax [2, 13]: 12%
CCOc1cccc([C@@](O)(C(=O)N2CCC(CC3CCN(c4ccc(C(N)=O)c(Cl)c4)CC3)CC2)C(F)(F)F)c1 [Example 12-8, 2-chloro-4-[4-({1-[(2R)-2-(3-ethoxyphenyl)-3,3,3-trifluoro-2-hydroxypropanoyl]-piperidin-4-yl}methyl)-piperidin-1-yl]-benzamide]					EC50 [1, 10]: 4 nM; Emax [1, 11]: 46%; LXR alpha IP (Inflection Point, potency) [2, 12]: NO IP; Emax [2, 13]: 12%
NC(=O)c1ccc(N2CCC(CC3CCN(C(=O)C(O)(c4cc(F)cc(Cl)c4)C(F)(F)F)CC3)CC2)cc1Cl (stereo not drawn) [Example 12-9, 2-chloro-4-[4-({1-[2-(3-chloro-5-fluorophenyl)-3,3,3-trifluoro-2-hydroxy-propanoyl]piperidin-4-yl}methyl)piperidin-1-yl]benzamide]					EC50 [1, 10]: 8 nM; Emax [1, 11]: 98%; EC50 [2, 14]: 47 nM; Emax [2, 13]: 52%
CC(C)c1cccc([C@@](O)(C(=O)N2CCC(CC3CCN(c4ccc(C(N)=O)c(Cl)c4)CC3)CC2)C(F)(F)F)c1 [Example 12-10, 2-chloro-4-{4-[(1-{(2R)-3,3,3-trifluoro-2-hydroxy-2-[3-(1-methylethyl)phenyl]-propanoyl}piperidin-4-yl)methyl]piperidin-1-yl}benzamide]					EC50 [1, 10]: 8 nM; Emax [1, 11]: 51%; EC50 [2, 14]: 85 nM; Emax [2, 13]: 26%
CN(C)C(=O)c1ccc(N2CCC(CC3CN(S(=O)(=O)c4ccccc4)C3)CC2)cc1Cl [Example 13-1, 2-chloro-N,N-dimethyl-4-(4-((1-(phenylsulfonyl)azetidin-3-yl)methyl)piperidin-1-yl)benzamide]					EC50 [1, 10]: 61 nM; Emax ([1]; read-out: LXR beta Activity @ max dose): 73%; EC50 [2, 14]: 2480 nM; Emax ([2]; read-out: LXR alpha Activity @ max dose): 37%
